Results taken from publication PMC8187479, “Sugar phosphate activation of the stress sensor eIF2B” (Nature Communications, 2021).
Peptide text beside a SMILES is read from it.

Molecular target: T1, eIF2Bα (Homo sapiens, UniProt Q14232)
T1 construct: made in house; host or cells: E. coli BL21(DE3)
T1 sequence (Q14232 1-305): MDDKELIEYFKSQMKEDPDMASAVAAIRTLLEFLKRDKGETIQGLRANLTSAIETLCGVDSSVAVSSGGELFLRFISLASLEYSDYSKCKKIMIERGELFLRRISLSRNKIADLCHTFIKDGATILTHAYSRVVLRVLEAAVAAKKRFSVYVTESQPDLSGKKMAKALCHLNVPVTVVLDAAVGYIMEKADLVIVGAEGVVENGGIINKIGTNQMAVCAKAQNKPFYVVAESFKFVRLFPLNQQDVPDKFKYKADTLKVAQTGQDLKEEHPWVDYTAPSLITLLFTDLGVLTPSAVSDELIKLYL
Assay: MIDAS (mass spectrometry integrated with equilibrium dialysis) metabolite binding screen
Conditions: MIDAS metabolite binding screen with eIF2Bα; sheet "eIF2Ba"
Summary of the method: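 Hits called at Storey q < 0.1 on z-scores of PCA-corrected log2 fold change between protein and metabolite chambers, quantified by FIA-MS in triplicate.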

Point of comparison: CC(C)(CO)[C@@H](O)C(=O)NCCC(=O)O [Pantothenic acid], “log2(corrected fold change)” value 0.0165. Against it:
- N[C@@H](CCCCN[C@@H](CCC(=O)O)C(=O)O)C(=O)O [L-Saccharopine] — within 0.2 log units, -0.0272
- N[C@@H](CO)C(=O)O [L-Serine] — within 0.2 log units, -0.04824
- C[C@@H](O)[C@H](N)C(=O)O [L-Threonine] — within 0.2 log units, -0.05619
- C[N+](C)(C)CCOP(=O)([O-])OC[C@H](O)CO [L-alpha-Glycerophosphorylcholine] — within 0.2 log units, 0.1951
- CC(C)(CO[P@@](=O)(O)O[P@@](=O)(O)OC[C@H]1O[C@@H](n2cnc3c(N)ncnc32)[C@H](O)[C@@H]1OP(=O)(O)O)[C@@H](O)C(=O)NCCC(=O)NCCSC(=O)CC(=O)O [Malonyl coenzyme A] — within 0.2 log units, -0.02331
- OC[C@H]1O[C@H](OCC2O[C@@H](O)[C@H](O)[C@@H](O)[C@@H]2O)[C@H](O)[C@@H](O)[C@H]1O (stereo partly shown) [Melibiose] — within 0.2 log units, -0.003615
- CC(C(=O)O)C(=O)O [Methylmalonic acid] — within 0.2 log units, -0.05121
- CN(C)CC(=O)O [N,N-Dimethylglycine] — within 0.2 log units, 0.0213
- CC(=O)N[C@@H](CC(=O)O)C(=O)N[C@@H](CCC(=O)O)C(=O)O [N-Acetyl-Asp-Glu] (Ac-Asp-Glu-OH) — within 0.2 log units, 0.1173
- CC(=O)N[C@H]1C(OP(=O)(O)O)O[C@H](CO)[C@@H](O)[C@@H]1O (stereo partly drawn) [N-Acetyl-D-glucosamine 1-phosphate] — within 0.2 log units, -0.08166
- CC(=O)N[C@H]1C(O)O[C@H](COP(=O)(O)O)[C@@H](O)[C@@H]1O (stereo partly drawn) [N-Acetyl-D-glucosamine 6-phosphate] — within 0.2 log units, -0.009906
- CC(=O)N[C@@H]1C(O)O[C@H](CO)[C@@H](O)[C@@H]1O (stereo partly drawn) [N-Acetyl-D-mannosamine] — within 0.2 log units, 0.03658
- CC(=O)N[C@@H](CC(=O)O)C(=O)O [N-Acetyl-L-aspartate] — within 0.2 log units, 0.003577
- CC(=O)N[C@@H](CCC(=O)O)C(=O)O [N-Acetyl-L-glutamic acid] — within 0.2 log units, 0.006675
- CC(=O)N[C@H]1C(O)O[C@H](CO)[C@@H](O)[C@@H]1O[C@H](C)C(=O)O (stereo partly shown) [N-Acetylmuramic acid] — within 0.2 log units, 0.002532
- CC(=O)N[C@H]1[C@H]([C@H](O)[C@H](O)CO)OC(O)(C(=O)O)C[C@@H]1O (stereo partly shown) [N-Acetylneuraminic acid] — within 0.2 log units, -0.0313
- O=C(CO)N[C@H]1[C@H]([C@H](O)[C@H](O)CO)OC(O)(C(=O)O)C[C@@H]1O (stereo partly shown) [N-Glycolylneuraminic acid] — within 0.2 log units, -0.02217
- CCCCCC(=O)NCC(=O)O [N-Hexanoyl-glycine] — within 0.2 log units, -0.05912
- CC(C)CC(=O)NCC(=O)O [N-Isovalerylglycine] — within 0.2 log units, -0.07333
- NC(=O)C1=CN([C@@H]2O[C@H](COP(=O)(O)OP(=O)(O)OC[C@H]3O[C@@H](n4cnc5c(N)ncnc54)[C@H](O)[C@@H]3O)[C@@H](O)[C@H]2O)C=CC1 [NADH] — within 0.2 log units, 0.1674
- NC(=O)c1ccc[n+]([C@@H]2O[C@H](COP(=O)([O-])OP(=O)(O)OC[C@H]3O[C@@H](n4cnc5c(N)ncnc54)[C@H](OP(=O)(O)O)[C@@H]3O)[C@@H](O)[C@H]2O)c1 [NADP] — within 0.2 log units, 0.02005
- CC(=O)N[C@@H](CCCCN)C(=O)O [Nalpha-Acetyl-L-lysine] — within 0.2 log units, -0.03422
- CC(=O)NCCCC[C@H](N)C(=O)O [Ne-Acetyl-lysine] — within 0.2 log units, -0.03422
- NC(=O)c1ccc[n+]([C@@H]2O[C@H](COP(=O)([O-])OP(=O)(O)OC[C@H]3O[C@@H](n4cnc5c(N)ncnc54)[C@H](O)[C@@H]3O)[C@@H](O)[C@H]2O)c1 [Nicotinamide adenine dinucleotide] — within 0.2 log units, -0.063
- N[C@@H](COP(=O)(O)O)C(=O)O [O-Phospho-L-serine] — within 0.2 log units, 0.01938
- CCCCCCCC(=O)O [Octanoic acid] — within 0.2 log units, -0.007345
- CCCCCCCC(=O)SCCNC(=O)CCNC(=O)C(O)C(C)(C)COP(=O)(O)OP(=O)(O)OC[C@H]1O[C@@H](n2cnc3c(N)ncnc32)[C@H](O)[C@@H]1OP(=O)(O)O (stereo partly shown) [Octanoyl coenzyme A] — higher, 0.3691
- NCCc1ccccc1 [Phenethylamine] — within 0.2 log units, -0.07261
- CN(CC(=O)O)C(=N)NP(=O)(O)O [Phosphocreatine] — within 0.2 log units, -0.03403
- Cc1ncc(COP(=O)(O)O)c(C=O)c1O [Pyridoxal 5-phosphate] — within 0.2 log units, 0.1983
- Cc1ncc(CO)c(C=O)c1O [Pyridoxal] — within 0.2 log units, 0.1009
- Cc1ncc(COP(=O)(O)O)c(CN)c1O [Pyridoxamine-5-phosphate] — within 0.2 log units, -0.03281
- Cc1ncc(CO)c(CN)c1O [Pyridoxamine] — within 0.2 log units, 0.0724
- Cc1cc2nc3c(=O)[nH]c(=O)nc-3n(C[C@H](O)[C@H](O)[C@H](O)COP(=O)(O)O)c2cc1C [Riboflavin 5-monophosphate] — within 0.2 log units, 0.06004

Same assay, conditions: MIDAS screen, sheet eIF2Ba; metabolites screened in pools 1-4; p-value and q-value given

Point of comparison: N[C@@H](Cc1c[nH]c2ccccc12)C(=O)O [L-Tryptophan], “log2(corrected fold change)” value 0.08785. Against it:
- O=C(O)[C@@H]1CCC(O)=N1 [L-Pyroglutamic acid] — within 0.2 log units, -0.09309
- O=C(CO)[C@@H](O)[C@@H](O)CO [L-Ribulose] — lower, -0.1354
- CC(C)[C@H](N)C(=O)O [L-Valine] — within 0.2 log units, -0.07845
- N[C@@H](CC(=O)O)C(=O)N[C@@H](Cc1ccccc1)C(=O)O [L-a-Aspartyl-L-phenylalanine] (H-Asp-Phe-OH) — lower, -0.1203
- O=P(O)(O)OC1O[C@H](CO)[C@@H](O)[C@H](O)[C@@H]1O (stereo partly shown) [Mannose 1-phosphate] — lower, -0.1344
- CNCC(O)c1ccc(O)c(OC)c1 (stereo not shown) [Metanephrine] — lower, -0.1853
- CC(=O)N[C@H]1[C@H](O[C@H]2[C@H](O)[C@@H](NC(C)=O)C(O)O[C@@H]2CO)O[C@H](CO)[C@@H](O)[C@@H]1O (stereo partly shown) [N,N-Diacetylchitobiose] — within 0.2 log units, 0.08913
- O=C(O)CNC(=O)c1ccco1 [N-2-Furoylglycine] — lower, -0.1649
- CC(=O)NCCc1c[nH]c2ccc(O)cc12 [N-Acetyl-5-hydroxytryptamine] — within 0.2 log units, 0.03423
- CC(=O)N[C@H]1C(O)O[C@H](CO)[C@H](O)[C@@H]1O (stereo partly drawn) [N-Acetyl-D-galactosamine] — higher, 0.3673
- CC(=O)N[C@@H]1[C@@H](O)[C@H](O)[C@@H](CO)O[C@@H]1O [N-Acetyl-D-glucosamine] — higher, 0.3673
- CC(=O)N[C@@H](C)C(=O)O [N-Acetyl-L-alanine] — within 0.2 log units, 0.07527
- CC(=O)NCCCCN [N-Acetylputrescine] — lower, -0.2203
- O=CNc1ccccc1C(=O)O [N-Formylanthranilic acid] — within 0.2 log units, 0.2026
- NC(=O)C1=CN([C@@H]2O[C@H](COP(=O)(O)OP(=O)(O)OC[C@H]3O[C@@H](n4cnc5c(N)ncnc54)[C@H](OP(=O)(O)O)[C@@H]3O)[C@@H](O)[C@H]2O)C=CC1 [NADPH] — lower, -0.8133
- NC(=O)c1ccc[n+](C2OC(COP(=O)(O)OP(=O)(O)OCC3OC(n4cnc5c(=O)[nH]cnc54)C(O)C3O)C(O)C2O)c1 (stereo not shown) [Nicotinamide hypoxanthine dinucleotide] — within 0.2 log units, 0.06307
- NC(=O)c1ccc[n+]([C@@H]2O[C@H](COP(=O)([O-])O)[C@@H](O)[C@H]2O)c1 [Nicotinamide ribotide] — higher, 1.511
- NC(=O)c1cccnc1 [Nicotinamide] — within 0.2 log units, -0.1042
- O=C(O)c1cccnc1 [Nicotinic acid] — lower, -0.1307
- CC(=O)O[C@H](CC(=O)[O-])C[N+](C)(C)C [O-Acetyl-L-carnitine] — within 0.2 log units, -0.03661
- NCCOP(=O)(O)O [O-Phosphorylethanolamine] — within 0.2 log units, 0.1876
- O=C(O)c1cc(=O)[nH]c(=O)[nH]1 [Orotic acid] — within 0.2 log units, 0.07847
- O=C(O)CC(=O)C(=O)O [Oxaloacetic acid] — within 0.2 log units, 0.1095
- O=C(O)CNC(=O)Cc1ccccc1 [Phenylacetylglycine] — within 0.2 log units, 0.07604
- O=C(O)C(=O)Cc1ccccc1 [Phenylpyruvate] — within 0.2 log units, 0.02641
- C[N+](C)(C)CCOP(=O)(O)O [Phosphocholine] — within 0.2 log units, -0.0156
- NCc1[nH]cc(CCC(=O)O)c1CC(=O)O [Porphobilinogen] — within 0.2 log units, -0.05886
- CCC(=O)SCCNC(=O)CCNC(=O)[C@H](O)C(C)(C)COP(=O)(O)OP(=O)(O)OC[C@H]1O[C@@H](n2cnc3c(N)ncnc32)[C@H](O)[C@@H]1OP(=O)(O)O [Propionyl coenzyme A] — higher, 0.4521
- CCC(=O)NCC(=O)O [Propionylglycine] — within 0.2 log units, 0.07527
- CCCCC[C@H](O)/C=C/[C@H]1C(=O)C[C@H](O)[C@@H]1C/C=C\CCCC(=O)O [Prostaglandin D2] — within 0.2 log units, 0.05625
- CCCCC[C@H](O)/C=C/[C@H]1[C@H](O)CC(=O)[C@@H]1C/C=C\CCCC(=O)O [Prostaglandin E2] — within 0.2 log units, 0.05625
- CCCCC[C@H](O)/C=C/[C@@H]1[C@H]2C/C(=C/CCCC(=O)O)O[C@H]2C[C@H]1O [Prostaglandin I2] — within 0.2 log units, 0.05625
- Cc1ncc(CO)c(CO)c1O [Pyridoxine] — within 0.2 log units, -0.04546
- Cc1cc2nc3c(=O)[nH]c(=O)nc-3n(C[C@H](O)[C@H](O)[C@H](O)CO)c2cc1C [Riboflavin] — higher, 0.3728
